Values belong to the compound of their own block, whether it stands above or below them.
Experiments:
[1] = tested on: C57/BL6 mice fed MCD diet; assay: Pharmacodynamic test in methionine-choline deficient diet (MCD) model of non-alcoholic fatty liver disease; format: in vivo; settings: MCD mice, obeticholic acid 40 mpk
Description: Animal strain: C57/BL6, Animal Grade: SPF Grade, Gender: male, Animal Age: 8 weeks old, Animals Received Date: 2018 Sep. 28, Animal Source: Shanghai Lingchang Biotechnology Co. Ltd., Animal Certificate No: SCXK (Shanghai)2013-0018 2013001836799, Mouse feeding Environment: temperature 20-26° C., humidity 40-70%, 12 hour day and night cycle.
5% Solutol HS15/Normal saline: after Solutol HS15 (polyethylene glycol 15 hydroxystearate solubilizer) is dissolved in a water bath at 37° C., 5 ml of it is dissolved in 100 ml of normal saline, thoroughly stirred for later use.
Obeticholic acid/5% Solutol HS15/Normal saline: 0.15 ml Solutol HS15 is added to accurately weighed 12 mg obeticholic acid to fully dissolve it, and 2.85 ml normal saline is added, vigorously mixed and dissolved by the ultrasound. • TM-01 Group/5% Solutol HS15/Normal saline: 2.5 ml of 6 mg/ml TM-01 suspension is taken, 2.5 ml of 5% Solutol HS15/normal saline is added, and the mixture is mixed well. • TM-02 Group/5% Solutol HS15/Normal saline: 2.5 ml of 6 mg/ml TM-02 suspension is taken, 2.5 ml of 5% Solutol HS15/normal saline is added, and the mixture is mixed well. • TM-06 Group/5% Solutol HS15/Normal saline: 2.5 ml of 6 mg/ml TM-06 suspension is taken, 2.5 ml of 5% Solutol HS15/Normal saline is added, and the mixture is mixed well. • TM-09 Group/5% Solutol HS15/Normal saline: 2.5 ml of 6 mg/ml TM-09 suspension is taken, 2.5 ml of 5% Solutol HS15/Normal saline is added, and the mixture is mixed well.
Menstruum and test compounds are administered by gavage at a dose volume of 10 ml/kg;
After reaching the animal house, 70 8-week-old C57/BL6 mice are fed adaptively and randomly divided into 7 groups according to body weight after the average body weight reaches 23 g. They are given the model feed. The first group receives the control diet MCS and the remaining groups receive the MCD diet, while each group of mice receives compound treatment as follows: • Group 1. Control Group: MCS, menstruum, administered once daily by gavage; • Group 2. Model Group: MCD, menstruum, administered once daily by gavage; • Group 3. Obeticholic acid group: MCD, 40 mpk obeticholic acid, administered once daily by gavage; • Group 4. TM-01 Group: MCD, 30 mpk TM-01, administered once daily by gavage; • Group 5. TM-02 Group: MCD, 30 mpk TM-02, administered once daily by gavage; • Group 6. TM-06 Group: MCD, 30 mpk TM-06, administered once daily by gavage; • Group 7. TM-09 Group: MCD, 30 mpk TM-09, administered once daily by gavage; 2.4 Experimental Methods
Body weight and food intake are measured weekly during the experiment. Twenty-one days after administration, tail tips are bled with microcapillaries for AST, ALT measurements. Twenty-eight days after administration, mice are terminated, hearts are bled, and liver tissues are collected and weighed. One portion is snap frozen with liquid nitrogen for subsequent analysis and the other portion are fixed for pathological analysis.
Mouse blood is centrifuged at 5000 rpm for 10 minutes and supernatants are collected for determination of TG (triglycerides), TC (total cholesterol), HDL (high density lipoprotein), LDL (low density lipoprotein), AST (aspartate aminotransferase) and ALT (alanine aminotransferase).
AST and ALT after administration for three and four weeks are determined according to the instructions of kit. The blood lipid index 4 weeks after administration is sent to Adicon Medical Laboratory Co. Ltd. for detection.
The livers are removed from −80° C., homogenized in PBS (phosphate buffered saline), extracted with chloroform methanol organic phase, and subjected to TC and TG assays using the kit, normalized for protein content.
Four weeks after administration, the mice are anesthetized. The heart is bled, the liver is isolated and weighed. The right lobe is snapfrozen with liquid nitrogen and stored at −80° C. for liver lipid analysis. The left lobe is isolated and fixed in 10% formalin for subsequent HE and Sirius Red staining. […]

[2] = molecular target: T1, GST-labeled recombinant human FXR protein (Homo sapiens, UniProt Q96RI1); assay: Agonistic activity on FXR receptor (GST-FXR / SRC-1 bead assay, protein level); format: biochemical; settings: for EC50: 0.4 nM FXR, 30 nM SRC-1, protein level; for FXR agonistic activity at protein level (in words): judgement on Table 1 results
T1 construct: purchased Invitroren (so in the source)
T1 sequence (Q96RI1 262-486 limits assumed): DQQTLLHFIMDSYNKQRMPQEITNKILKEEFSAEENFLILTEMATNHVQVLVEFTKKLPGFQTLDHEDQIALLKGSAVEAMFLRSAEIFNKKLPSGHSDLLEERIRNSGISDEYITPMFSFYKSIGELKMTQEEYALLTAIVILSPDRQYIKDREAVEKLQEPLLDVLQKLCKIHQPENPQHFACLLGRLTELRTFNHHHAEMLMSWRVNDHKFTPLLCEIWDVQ
T1 sequence (Q15788 676-700 partner limits assumed): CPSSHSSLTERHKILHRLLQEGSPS
Description: Experimental procedures: FXR (GST-labeled recombinant human FXR protein, manufacturer: Invitroren, Item number: PV4835) and SRC-1 (steroid receptor co-activator-1) are thawed on ice. Three solutions of ABC are prepared by a buffer solution, solution A, 0.4 n M FXR and 30 nM SRC-1; solution B, 10 ug/ml Acceptor Beads; solution C, 10 ug/ml Donor Beads. Solution A is added to the plate at 15 uL per well. It is incubated at room temperature for 1 hour. Solution B is added to the plate at 7.5 uL per well. It is incubated at room temperature for 1 hour. Solution C is added to the plate at 7.5 uL per well. It is incubated at room temperature for 1 hour. It is read from the microplate reader Envision. The data are curve fitted by using Prism 5.0 to calculate the EC50.

in vitro = settings: human; for Papp A→B: Caco-2, Papp A-B; for recovery: Caco-2, Recovery rate A-B
Description: The bi-directional transport of target compounds from apical side (AP) to basolateral side (BL) and from BL side to AP side is studied by using human colon adenocarcinoma cell line Caco-2 monolayer model. The transport parameters, apparent permeability coefficient (Papp) and efflux ratio are calculated by quantitative analysis with high performance liquid chromatography (HPLC).

[3] = blood, 3 weeks, TM 30 mpk, gavage
[4] = blood, 4 weeks, TM 30 mpk, gavage
[5] = blood, after 4 weeks, TM 30 mpk
[6] = liver, after 4 weeks, TM 30 mpk

Weight, 0 week ([1]; 0 week, TM compounds 30 mpk, once daily by gavage): 23.72 ± 0.46 g
Food intake, 1 week ([1]; 1 week, TM 30 mpk, gavage): 2.992 ± 0.396 g
Weight, 1 week ([1]; 1 week, TM compounds 30 mpk, once daily by gavage): 21.28 ± 0.42 g
Food intake, 2 weeks ([1]; 2 weeks, TM 30 mpk, gavage): 2.945 ± 0.315 g
Weight, 2 weeks ([1]; 2 weeks, TM compounds 30 mpk, once daily by gavage): 18.97 ± 0.41 g
Food intake, 3 weeks ([1]; 3 weeks, TM 30 mpk, gavage): 2.092 ± 0.320 g
Weight, 3 weeks ([1]; 3 weeks, TM compounds 30 mpk, once daily by gavage): 17.60 ± 0.35 g
Food intake, 4 weeks ([1]; 4 weeks, TM 30 mpk, gavage): 2.073 ± 0.031 g
Weight, 4 week ([1]; 4 weeks, TM compounds 30 mpk, once daily by gavage): 15.72 ± 0.35 g
SMILES: CC[C@H]1[C@@H](O)[C@@H]2[C@H](CC[C@]3(C)[C@@H]([C@H](C)CCC(=O)O)CC[C@@H]23)[C@@]2(C)CC[C@@H](O)C[C@@H]12 [obeticholic acid, reference compound]
liver weight ([1]; after 4 weeks, TM 30 mpk): 0.90 ± 0.03 g
liver/body weight ([1]; after 4 weeks, TM 30 mpk): 5.76 ± 0.26 %
ALT, 3 weeks [1, 3]: 323.00 ± 37.79 U/L
AST, 3 weeks [1, 3]: 197.24 ± 21.54 U/L
ALT, 4 weeks [1, 4]: 93.37 ± 10.36 U/L
AST, 4 weeks [1, 4]: 126.59 ± 20.25 U/L
HDL (blood lipid) [1, 5]: 0.55 ± 0.01 mmol/L
LDL (blood lipid) [1, 5]: 2.80 ± 0.03 mmol/L
TC (blood lipid) [1, 5]: 0.86 ± 0.04 mmol/L
TG (blood lipid) [1, 5]: 0.56 ± 0.02 mmol/L
HE score ([1]; liver pathology score (Table 12 criteria), 4 weeks, TM 30 mpk): 2.6
Sirius red staining area ([1]; liver, 4 weeks, TM 30 mpk): 0.344 ± 0.057%
liver TC [1, 6]: 35.7 ± 3.38 µmol/g protein
liver TG [1, 6]: 298 ± 36.2 µmol/g protein

EC50 [2]: 4.21 µM
FXR agonistic activity at protein level (in words) [2]: poor activity
SMILES: O=C(O)c1cccc(C2CC(O)(c3cnc(OCc4c(-c5c(Cl)cccc5Cl)noc4-c4ccccc4)cn3)C2)c1 (centres unmarked) [TM-07, 3-(3-(5-(5-phenyl-3-(2,6-dichlorophenyl)isoxazole-4-ylmethoxy)-2-pyrazine)-1-hydroxycyclobutane) benzoic acid]

EC50 [2]: 5.66 µM
FXR agonistic activity at protein level (in words) [2]: poor activity
SMILES: Cc1cc(C(=O)O)cc(C2CC(O)(c3cnc(OCc4c(-c5c(Cl)cccc5Cl)noc4-c4ccccc4)cn3)C2)c1 (centres unmarked) [TM-10, 3-(3-(5-((3-(2,6-dichlorophenyl)-5-phenylisoxazol-4-yl)methoxy)pyrazine-2-yl)-3-hydroxycyclobutyl)-5-methyl benzoic acid]

Further lines, the compound ahead of its results:

SMILES: OC1(c2cnc(OCc3c(-c4c(Cl)cccc4Cl)noc3C3CC3)cn2)CC(c2cccc(Sc3ccccc3)c2)C1 (centres unmarked) [TM-05, 1-(5-((5-cyclopropyl-3-(2,6-dichlorophenyl)isoxazol-4-yl)methoxy)pyrazine-2-yl)-3-(3-(phenylthio)phenyl) cyclobutanol]
EC50 [2]: 5.01 µM
FXR agonistic activity at protein level (in words) [2]: poor activity

SMILES: CC(C)(C)NCC(O)COc1cccc2c1CC(O)C(O)C2 (centres unmarked) [Nadolol, reference compound]
Papp A→B (in vitro): 0.07 ×10⁻⁶ cm/s
Papp A→B (in vitro; Average): 0.07 ×10⁻⁶ cm/s
Papp A→B (in vitro; Sample-01): 0.07 ×10⁻⁶ cm/s
Papp A→B (in vitro; Sample-02): 0.06 ×10⁻⁶ cm/s
recovery (in vitro; Average): 89.8%
recovery (in vitro; Sample-01): 91.5%
recovery (in vitro; Sample-02): 88%

SMILES: COCCc1ccc(OCC(O)CNC(C)C)cc1 (centres unmarked) [Metoprolol, reference compound]
Papp A→B (in vitro): 18.1 ×10⁻⁶ cm/s
Papp A→B (in vitro; Average): 18.1 ×10⁻⁶ cm/s
Papp A→B (in vitro; Sample-01): 19.5 ×10⁻⁶ cm/s
Papp A→B (in vitro; Sample-02): 16.8 ×10⁻⁶ cm/s
recovery (in vitro; Average): 93.8%
recovery (in vitro; Sample-01): 93.2%
recovery (in vitro; Sample-02): 94.3%

SMILES: CS(=O)(=O)c1cccc(C2CC(O)(c3cnc(OCc4c(-c5c(Cl)cccc5Cl)noc4C4CC4)cn3)C2)c1 (centres unmarked) [TM-04, 1-(5-((5-cyclopropyl-3-(2,6-dichlorophenyl)isoxazol-4-yl)methoxy)pyrazine-2-yl)-3-(3-(methylsulfonyl)phenyl) cyclobutanol]
EC50 [2]: 1.35 µM

SMILES: O=C(O)c1cccc(N2CC(O)(c3ccc(OCc4c(-c5c(Cl)cccc5Cl)noc4C4CC4)cc3Cl)C2)c1 [Compound M2, reference compound]
EC50 [2]: 1.8 µM
FXR agonistic activity at protein level (in words) [2]: less active than the compounds of the present invention

SMILES: OC1(c2cnc(OCc3c(-c4c(Cl)cccc4Cl)noc3C3CC3)cn2)CC(c2cccc(Br)c2)C1 (centres unmarked) [TM-03, 3-(3-bromophenyl)-1-(5-((5-cyclopropyl-3-(2,6-dichlorophenyl)isoxazol-4-yl)methoxy)pyrazine-2-yl) cyclobutanol]
EC50 [2]: 0.24 µM

Source: patent US12486259B2, “FXR agonist having pyrazine structure, and preparation method and use” (JIANGSU TASLY DIYI PHARMACEUTICAL CO., LTD., priority 2020, dated 2025)
